Measured values reported in US4831026A, “2-oxa-isocephem compounds, compositions containing same and processes of using” (Otsuka Pharmaceutical Co., Ltd., priority 1985, dated 1989).
Like-named read-outs stand apart in the source and are kept apart here.

Tests used:
[1] = test system: S. aureus FDA-209-p; assay: Antimicrobial activity test: MIC by the agar plate dilution method, S. aureus FDA-209-p; format: cell-based, Staphylococcus aureus; settings: inoculum 1×10^6 cells/ml
Method in brief: (§1)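 Read-out is the minimal inhibitory concentration, determined in vitro by agar plate dilution with test inocula of 1×10^6 cells/ml.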

[2] = test system: E. coli NIHJ; assay: Antimicrobial activity test: MIC by the agar plate dilution method, E. coli NIHJ; format: cell-based; settings: inoculum 1×10^6 cells/ml
Procedure: In order to investigate the in vitro activity of the under-mentioned compounds against various bacteria, the minimal inhibitory concentration (MIC) values were determined by the agar plate dilution method [see Chemotherapy, 22, 1126-1128 (1974)].
Each test inoculum was adjusted to 1×10^6 cells/ml (O.D., 600 mμ: 0.07-0.16).

[3] = test system: E. coli No. 29; assay: Antimicrobial activity test: MIC by the agar plate dilution method, E. coli No. 29; format: cell-based
Method in brief: as §1

[4] = test system: K. pneumoniae NCTC-9632; assay: Antimicrobial activity test: MIC by the agar plate dilution method, K. pneumoniae NCTC-9632; format: cell-based; settings: inoculum 1×10^6 cells/ml
Method in brief: as §1

[5] = test system: P. mirabilis 1287; assay: Antimicrobial activity test: MIC by the agar plate dilution method, P. mirabilis 1287; format: cell-based
Method in brief: as §1

[6] = test system: M. morganii ATCC-25830; assay: Antimicrobial activity test: MIC by the agar plate dilution method, M. morganii ATCC-25830; format: cell-based; settings: inoculum 1×10^6 cells/ml
Method in brief: as §1

[7] = test system: S. marcescens IFO-12648; assay: Antimicrobial activity test: MIC by the agar plate dilution method, S. marcescens IFO-12648; format: cell-based
Method in brief: as §1

[8] = test system: P. aeruginosa NCTC-10490; assay: Antimicrobial activity test: MIC by the agar plate dilution method, P. aeruginosa NCTC-10490; format: cell-based; settings: inoculum 1×10^6 cells/ml
Method in brief: as §1

[9] = E. coli No. 29, inoculum 1×10^6 cells/ml
[10] = P. mirabilis 1287, inoculum 1×10^6 cells/ml
[11] = S. marcescens IFO-12648, inoculum 1×10^6 cells/ml

Row | Substance | MIC [1] [µg/mL] | MIC [2] [µg/mL] | MIC [3, 9] [µg/mL] | MIC [4] [µg/mL] | MIC [5, 10] [µg/mL] | MIC [6] [µg/mL] | MIC [7, 11] [µg/mL] | MIC [8] [µg/mL] | MIC [3] [µg/mL] | MIC [7] [µg/mL] | MIC [5] [µg/mL]
1 | 7-[2-(2-Chloroacetamidothiazol-4-yl)-2-ethoxyiminoacetamido]-3-[(1,3,4-thiadiazol-2-yl)thiomethyl-]-Δ^3 -O-2-isocephem-4-carboxylic acid (syn-isomer) [Example 28] | 0.78 | ≤ 0.025 | ≤ 0.025 | 0.05 | ≤ 0.025 | ≤ 0.025 | 0.2 | 1.56 | – | – | –
2 | 7-[2-(2-Formamidothiazol-4-yl)-2-methylthiomethoxyiminoacetamido]-3-[(1,3,4-thiadiazol-2-yl)thiomethyl]-Δ^3 -O-2-isocephem-4-carboxylic acid (syn-isomer) [Example 45] | 0.39 | 0.39 | – | 0.39 | 0.2 | 0.39 | – | 6.25 | 0.39 | 0.78 | –
3 | 7-[2-(2-Trifluoroacetamidothiazol-4-yl)-2methoxyiminoacetamido]-3-[(carbamoyloxy)methyl]-Δ^3 -O-2-isocephem-4-carboxylic acid (syn-isomer) [No. 5] | > 100 | 0.78 | – | 0.2 | – | 0.2 | – | 100 | 0.78 | 0.39 | 0.39
4 | (6S,7S)-7-[2-(2-Aminothiazol-4-yl)-2cyanomethoxyiminoacetamido]-3-[(1,3,4- thiadiazol-2-yl)thiomethyl]-Δ^3 -O-2-isocephem-4carboxylic acid trifluoroacetate (syn-isomer) [No. 16] | 0.39 | 0.39 | 0.2 | 0.39 | 0.1 | 0.05 | – | 0.39 | – | 0.78 | –
5 | Benzhydryl 7-[2-(2-aminothiazol-4-yl)-2-cyclopropylmethyloxyiminoacetamido]-3-[(1,2,3-thiadiazol-5-yl)thiomethyl]-Δ^3 -O-2-isocephem-4-carboxylate (syn-isomer) [Example 56] | 0.05 | 0.2 | 0.1 | 0.39 | 0.2 | 0.05 | – | 0.39 | – | 0.78 | –
6 | Benzhydryl 7-[2-(2-formamidothiazol-4-yl)-2-ethoxyiminoacetamido]-3-[(1,3,4-thiadiazol-2-yl)thiomethyl]-Δ^3 -O-2-isocephem-4-carboxylate (syn-isomer) [Example 30] | 0.1 | 0.05 | 0.1 | 0.2 | 0.2 | 0.39 | – | 25 | – | 0.39 | –
7 | Benzyl 7-[2-(2-chloroacetamidothiazol-4-yl)-2-ethoxyiminoacetamido]-3-[(1,3,4-thiadiazol-2-yl)thiomethyl]-Δ^3 -O-2-isocephem-4-carboxylate (syn-isomer) [Example 27] | 0.1 | 0.10 | 0.1 | 0.2 | 0.1 | 0.1 | 0.2 | 0.2 | – | – | –
